Patent US5677325A, “4-imidazolidinone compound” (Adir Et Compagnie, priority 1995, dated 1997)
“And” between values parts separate entries of the source, which are not always exact repeats. Equal values may be shown once.

Tests used:
glycine B site = target: T1, glycine B site (Rattus norvegicus, UniProt P35439); assay: Binding of [^3 H]-glycine to rat brain membranes (glycine B site); design: species or system rat (Wistar); conditions: [^3 H]-glycine 10 nM, 20 minutes at 4° C., concentration inhibiting radioligand binding by 50%
T1 construct: from tissue; host or cells: rat brain without cerebellum (Wistar males), Triton-treated membranes
Experimental: (§1) Preparation of the membranes (according to Yoneda et al., J. Neurochem., 55, 1, 237-244, 1990)
(§2) The membranes are prepared and used in the same way for both radioligands. The buffers are prepared with sterile Milli-Q water (Millipore) which is deionized and filtered, just before use, on a nitrocellulose filter (0.45 μm).
(§3) After dissection, the brains from rats (Wistar males, 240-260 g), freed from the cerebellum, are placed in an ice-cold buffer comprising Tris-acetate (1 mM), EGTA (1 mM) and sucrose (320 mM) at pH 7. The brains are milled and then homogenized using a polytron. The suspension is centrifuged for 10 minutes at 1000 g and the supernatent containing the membranes is recovered and recentrifuged for 20 minutes at 35000 g. The pellet, freed from a brown ring, is recovered in a lysis buffer comprising Tris-acetate (1 mM) and EGTA (1 mM) at pH 8. The suspension is then left for 15 minutes at 4° C. and is then centrifuged for 20 minutes at 35000 g. The pellet is recovered in a Tris-acetate (50 mM) buffer at pH 7.4 containing 0.08% Triton and left for 30 minutes at 4° C.
(§4) After two successive centrifugings, the pellet is taken up in Tris-acetate (50 mM) buffer at pH 7.4, divided into aliquots and stored at -80° C. On the day of the experiment, at most 3 weeks after the preparation, the membranes are washed twice with Tris-acetate (50 mM) buffer at pH 7.4.
(§5) Binding experiments (according to Yoneda et al., J. Neurochem., 60, 2, 634-645, 1993)
(§6) The free and bound radioligands are separated on GF/B filters, preimpregnated with PEI (0.1%), using a Brandle filtration device. […] Each filter is rinsed 3 times. The radioactivity is measured using a β-counter (Tricarb 1500, Packard) and expressed in dpm. The curves obtained are analyzed using GraphPad Prism software (non-linear regression).

NMDA channel = assay: Binding of [^3 H]-MK 801 to rat brain membranes (NMDA channel), stimulation or inhibition; design: species or system rat (Wistar); conditions: for ME (maximum effect) on [^3 H]-MK 801 binding: with respect to a base of 0%, + = stimulation, - = inhibition; for IC50: read-out: IC50, [^3 H]-MK 801 binding, [^3 H]-MK 801 1 nM, 120 minutes at 20° C., antagonists; for activity at glycine B receptor (in words): agonist character
Experimental: as §1, §2, §3, §4, §5, §6
The opening of the channel of the NMDA receptor complex is modulated positively by the glycinergic site.

| Compound | IC50 (glycine B site) | ME (maximum effect) on [^3 H]-MK 801 binding (NMDA channel; at 1 μM) [%] | IC50 (NMDA channel) [µM] | IC50 (glycine B site; listed as compound of the invention) [µM] | ME (maximum effect) on [^3 H]-MK 801 binding (NMDA channel; at 10 μM) | ME (maximum effect) on [^3 H]-MK 801 binding (NMDA channel; at 10 μM, listed as compound of the invention) [%] | activity at glycine B receptor (in words) (NMDA channel; qualitative, listed as compound of the invention) | activity at glycine B receptor (in words) (NMDA channel; qualitative, listed as compound of the present invention) | effect on binding of [^3 H]-MK 801 (in words) (NMDA channel; rat brain membranes, qualitative) | ME (maximum effect) on [^3 H]-MK 801 binding (NMDA channel; at 100 μM) [%] |
| --- | --- | --- | --- | --- | --- | --- | --- | --- | --- | --- |
| O=c1[nH]c2cc(Cl)ccc2c(O)c1-c1cccc(Oc2ccccc2)c1 [L 701,324] | 0.026 µM and ~0.026 µM | -91 ± 3 | 0.022 |  |  |  |  |  |  |  |
| O=C1CNCN1O [Example 1, 3-Hydroxy-4-imidazolidinone] | 6.81 ± 0.545 µM |  |  | 6.8 | +46 ± 3% | 46 | behaves as an agonist | powerful partial agonist | stimulates the binding of [^3 H]-MK 801 |  |
| N[C@@H]1CCN(O)C1=O [(+)-HA966] | 7.3 µM |  | 6.73 |  |  |  |  |  |  | -85 ± 7 |
